The NIST ThermoML archive (doi:10.1016/j.jct.2007.11.010)

Assay: xn = mol fraction of the nth substance listed
Conditions: 101 kPa, Liquid

OCCN1CCOCC1 [4-morpholineethanol] + CC(C)O
mass density [kg/m3]
Conditions	293.15 K	298.15 K	303.15 K	313.15 K	323.15 K
x1 = 0.0543	810.11	806.22	801.63	792.98	784.44
x1 = 0.1127	835.5	831.48	826.84	818.19	809.79
x1 = 0.1873	865.79	861.61	856.92	848.29	840.07
x1 = 0.2468	888.39	884.1	879.38	870.77	862.71
x1 = 0.2874	903.13	898.77	894.03	885.45	877.5
x1 = 0.3248	916.03	911.6	906.84	898.29	890.46
x1 = 0.3873	936.59	932.06	927.29	918.79	911.14
x1 = 0.4267	948.75	944.16	939.38	930.92	923.4
x1 = 0.4882	967	962.32	957.53	949.14	941.81
x1 = 0.5237	976.91	972.17	967.38	959.03	951.82
x1 = 0.5894	994.19	989.37	984.57	976.32	969.32
x1 = 0.6422	1007.31	1002.43	997.63	989.46	982.63
x1 = 0.6899	1018.36	1013.43	1008.64	1000.53	993.87
x1 = 0.7439	1030.26	1025.27	1020.49	1012.47	1005.99
x1 = 0.7855	1038.88	1033.86	1029.09	1021.13	1014.79
x1 = 0.8238	1046.42	1041.36	1036.59	1028.7	1022.49
x1 = 0.8841	1057.54	1052.43	1047.69	1039.9	1033.9
x1 = 0.9247	1064.51	1059.37	1054.64	1046.93	1041.06
x1 = 0.9544	1069.21	1064.05	1059.33	1051.68	1045.92
x1 = 0.9844	1074.11	1068.93	1064.23	1056.62	1050.96

OCCN1CCOCC1 [4-morpholineethanol] + CCC(C)O
mass density [kg/m3]
Conditions	293.15 K	298.15 K	303.15 K	313.15 K	323.15 K
x1 = 0.0542	824.77	821.68	817.07	809.49	804.37
x1 = 0.1098	843.95	840.73	836.08	828.46	823.27
x1 = 0.1855	869.23	865.83	861.15	853.47	848.18
x1 = 0.2431	887.71	884.17	879.46	871.75	866.4
x1 = 0.2876	901.62	897.97	893.25	885.52	880.12
x1 = 0.3266	913.58	909.84	905.11	897.36	891.91
x1 = 0.3854	930.89	927.02	922.28	914.51	909.01
x1 = 0.4277	943.01	939.04	934.29	926.51	920.97
x1 = 0.4822	958.03	953.95	949.18	941.4	935.81
x1 = 0.5189	967.85	963.68	958.92	951.14	945.51
x1 = 0.5672	980.37	976.09	971.33	963.55	957.89
x1 = 0.6044	989.72	985.36	980.59	972.82	967.14
x1 = 0.6438	999.36	994.93	990.17	982.4	976.69
x1 = 0.6798	1007.93	1003.44	998.68	990.92	985.19
x1 = 0.7355	1020.77	1016.16	1011.41	1003.67	997.91
x1 = 0.7942	1033.69	1028.98	1024.24	1016.52	1010.73
x1 = 0.8427	1044.13	1039.33	1034.6	1026.9	1021.09
x1 = 0.8785	1051.72	1046.85	1042.13	1034.45	1028.62
x1 = 0.9235	1061.1	1056.15	1051.43	1043.77	1037.92
x1 = 0.9844	1073.45	1068.39	1063.69	1056.06	1050.18

OCCN1CCOCC1 [4-morpholineethanol] + CCO
mass density [kg/m3]
Conditions	293.15 K	298.15 K	303.15 K	313.15 K	323.15 K
x1 = 0.0543	820.46	817.03	812.82	804.96	794.75
x1 = 0.1127	851.58	847.96	843.64	835.77	824.13
x1 = 0.1873	886.91	883.05	878.64	870.75	857.23
x1 = 0.2468	911.75	907.72	903.24	895.37	880.63
x1 = 0.2874	927.58	923.45	918.93	911.07	–
x1 = 0.3248	941.14	936.91	932.36	924.52	–
x1 = 0.3873	961.89	957.52	952.92	945.11	927.56
x1 = 0.4267	973.69	969.23	964.6	956.83	938.98
x1 = 0.4882	990.98	986.4	981.73	974	955.56
x1 = 0.5237	1000.12	995.47	990.79	983.09	964.48
x1 = 0.5894	1015.56	1010.8	1006.1	998.46	–
x1 = 0.6422	1026.73	1021.89	1017.17	1009.59	–
x1 = 0.6899	1035.93	1031.02	1026.29	1018.76	1001.11
x1 = 0.7439	1045.49	1040.52	1035.78	1028.31	1011.45
x1 = 0.7855	1051.94	1046.91	1042.18	1034.76	1018.98
x1 = 0.8238	1057.63	1052.57	1047.83	1040.46	1025.59
x1 = 0.8841	1065.21	1060.1	1055.37	1048.08	1035.44
x1 = 0.9247	1069.51	1064.37	1059.65	1052.42	1041.71
x1 = 0.9544	1072.49	1067.33	1062.62	1055.43	1046.13
x1 = 0.9844	1075.58	1070.4	1065.69	1058.55	1050.45
